# Data: US7186731B2, “2-cyanopyrrolidinecarboxamide compound” (Astellas Pharma Inc., priority 2003, dated 2007)
# Structures can show the parent of a compound that is named as a salt.
# Target: T1, human plasma DPP-IV (Homo sapiens, UniProt P27487)
# T1 construct: from tissue; host or cells: human plasma
# Experiment: Inhibition Test of Human Plasma DPP-IV
# Format: biochemical
# Conditions: substrate H-glycine-proline-AMC, 20 minutes incubation at room temperature, fluorescence
# Experimental: Inhibition Test of Human Plasma DPP-IV
# Briefly, 20 μL of human plasma were mixed with 20 μL of 80 mM MgCl2 in assay buffer (25 mM HEPES, 140 mM NaCl, 1% RIA-grade BSA, pH7.8), and were incubated in a room temperature for 60 minutes. Then the reaction was initiated by the addition of both 20 μL of test compounds and 20 μL of 0.2 mM substrate (H-glycine-proline-AMC; AMC is 7-amino-4-methylcoumarine), they were dissolved in the assay buffer.
# After 20 minutes incubation in a room temperature (kept in the dark), fluorescence was measured (Excitation 380 nm, Emission 460 nm). A fluorescence-concentration curve of free AMC was obtained using AMC solution in the assay buffer with appropriate concentration. Plasma DPP-IV activities, with or without the test compounds, were expressed as the amount of product per minute per mL. The potency of the test compounds as DPP-IV inhibitor was expressed as IC50.
# T1 sequence (P27487 39-766 limits assumed): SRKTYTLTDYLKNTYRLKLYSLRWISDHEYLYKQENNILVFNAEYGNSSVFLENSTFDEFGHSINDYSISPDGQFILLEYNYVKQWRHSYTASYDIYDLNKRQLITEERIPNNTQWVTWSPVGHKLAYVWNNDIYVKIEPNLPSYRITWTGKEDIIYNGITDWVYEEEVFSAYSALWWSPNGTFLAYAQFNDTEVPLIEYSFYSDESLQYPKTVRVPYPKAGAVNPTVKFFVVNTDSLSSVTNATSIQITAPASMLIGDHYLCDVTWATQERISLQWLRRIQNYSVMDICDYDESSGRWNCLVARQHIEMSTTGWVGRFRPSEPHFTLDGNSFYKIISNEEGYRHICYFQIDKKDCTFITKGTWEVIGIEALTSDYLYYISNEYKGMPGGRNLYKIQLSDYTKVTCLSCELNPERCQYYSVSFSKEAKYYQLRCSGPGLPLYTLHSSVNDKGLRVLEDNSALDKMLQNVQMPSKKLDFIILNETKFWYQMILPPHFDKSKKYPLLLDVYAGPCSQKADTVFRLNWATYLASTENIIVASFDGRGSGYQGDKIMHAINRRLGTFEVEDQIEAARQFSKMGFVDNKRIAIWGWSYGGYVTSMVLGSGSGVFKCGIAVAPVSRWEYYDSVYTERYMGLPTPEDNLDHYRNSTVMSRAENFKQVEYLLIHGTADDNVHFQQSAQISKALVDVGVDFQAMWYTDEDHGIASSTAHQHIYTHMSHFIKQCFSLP
row,IC50,SMILES
1,4.7 nM,"N#C[C@@H]1C[C@H](F)CN1C(=O)[C@H]1N[C@@H]2C[C@H]1C[C@H]2O [Example 45-3, (2S,4S)-4-Fluoro-1-{[(1R,3S,4S,6R)-6-hydroxy-2-azabicyclo[2.2.1]hept-3-yl]carbonyl}-2-pyrrolidinecarbonitrile hydrochloride]"
2,8.5 nM,"N#C[C@@H]1CCCN1C(=O)[C@H]1N[C@H]2CC[C@@H]1[C@H](O)C2 [Example 2-8, (2S)-1-{[(1S,3S,4S,5R)-5-hydroxy-2-azabicyclo[2.2.2]oct-3-yl]carbonyl}-2-pyrrolidinecarbonitrile hydrochloride]"
3,15 nM,"CC1(NCC(=O)N2C[C@@H](F)C[C@H]2C#N)CCOCC1 [Example 7-12, (2S,4S)-4-Fluoro-1-{[(4-methyltetrahydro-2H-pyran-4-yl)amino]acetyl}-2-pyrrolidinecarbonitrile]"
4,8.7 nM,"N#C[C@@H]1CCCN1C(=O)[C@H]1N[C@@H]2C[C@H]1C[C@H]2O [Example 5-8, (2S)-1-{[(1R,3S,4S,6R)-6-hydroxy-2-azabicyclo[2.2.1]hept-3-yl]carbonyl}-2-pyrrolidinecarbonitrile hydrochloride]"
5,13 nM,"CC1(NCC(=O)N2C[C@@H](F)C[C@H]2C#N)CCN(c2cnccn2)CC1 [Example 10-8, (2S,4S)-4-Fluoro-1-({[4-methyl-1-(2-pyrazinyl)-4-piperidinyl]amino}acetyl)-2-pyrrolidinecarbonitrile]"
6,4.5 nM,"N#C[C@@H]1CCCN1C(=O)[C@H]1N[C@@H]2C[C@H]1C[C@H]2OCCO [Example 25-3, (2S)-1-{[(1R,3S,4S,6R)-6-(2-hydroxyethoxy)-2-azabicyclo[2.2.1]hept-3-yl]carbonyl}-2-pyrrolidinecarbonitrile hydrochloride]"

# Tested on: not given
# Experiment: not given
# Conditions: not given
row,melting point,SMILES
1,166 to 167 °C,"CC1(NCC(=O)N2C[C@@H](F)C[C@H]2C#N)CCN(c2cnccn2)CC1 [Example 10-8, (2S,4S)-4-Fluoro-1-({[4-methyl-1-(2-pyrazinyl)-4-piperidinyl]amino}acetyl)-2-pyrrolidinecarbonitrile]"
